We go through 3 compounds from US10189818B2, “5-(5-(2-(3-aminopropdoxy)-6-methoxyphenyl)-1H-pyrazol-3-ylamino)pyrazine-2-carbonitfile (S)-lactate monohydrate” (priority 2015, dated 2019).

SMILES strings stand for the structures. Some results are limits rather than exact numbers.

A short description of series [1]: Stability comparison of the salt forms (Table 2). It counts as physicochemical. As to conditions: salt form comparison.
The nature of series [2]: Solubility screen of the salts in aqueous acid solution, HPLC. As to conditions: thermodynamic from solid, room temperature, one week. The series is classed as physicochemical. On the procedure: Prepare an aqueous solution (approximately 0.1 M) of selected acid. Add solid 5-(5-(2-(3-aminopropoxy)-6-methoxyphenyl)-1H-pyrazol-3-ylamino)pyrazine-2-carbonitrile (20-26 mg). Agitate slurry at room temperature for one week. Measure the 5-(5-(2-(3-aminopropoxy)-6-methoxyphenyl)-1H-pyrazol-3-ylamino)pyrazine-2-carbonitrile concentration by HPLC. Aliquots (˜200 μL) are withdrawn from the suspensions through 0.45 micron Millex® PTFE filters. Dilute samples with mobile phase and analyze by HPLC. Analyze the samples with an Agilent 1100 HPLC (Instrument 800) with a Zorbax Bonus RP (75 mm×4.6 mm, 3.5 micron particle size) column, or equivalent. The mobile phase consists of 20% of a 0.1% TFA in acetonitrile mixture and 80% of a 0.1% TFA in water mixture. Instrument conditions are as follows: flow rate 1.0 mL/minute, wavelength of detection 290 nm, 3 μL injection volume, 10 minute run time, and column temperature of 30° C. Prepare a stock solution of 5-(5-(2-(3-aminopropoxy)-6-methoxyphenyl)-1H-pyrazol-3-ylamino)pyrazine-2-carbonitrile in 50/50 water/acetonitrile and dilute with 50/50 water/acetonitrile to give concentrations suitable for quantification of the solubility samples. Dilute the samples with 50/50 acetonitrile/water. Use a dilution factor of 200 for the samples. Measure the pH of each solution and analyze the solid residues by microscopy and XRPD (wet and dry) for crystallinity and crystal form.
Prepare a (S)-lactic acid aqueous solution (0.104 M, 1 mL). Add solid 5-(5-(2-(3-aminopropoxy)-6-methoxyphenyl)-1H-pyrazol-3-ylamino)pyrazine-2-carbonitrile (21.7 mg, 0.059 mmol). Agitate the slurry at room temperature for one week. Measure the 5-(5-(2-(3-aminopropoxy)-6-methoxyphenyl)-1H-pyrazol-3-ylamino)pyrazine-2-carbonitrile concentration by HPLC. Withdraw an aliquot (˜200 μL) from the suspension through 0.45 micron Millex® PTFE filters. Dilute the samples with mobile phase and analyze by HPLC. Analyze the samples with an Agilent 1100 HPLC (Instrument 800) with a Zorbax Bonus RP (75 mm×4.6 mm, 3.5 micron particle size) column, or equivalent. The mobile phase consists of 20% of a 0.1% TFA in acetonitrile mixture and 80% of a 0.1% TFA in water mixture. Instrument conditions are as follows: flow rate 1.0 mL/minute, wavelength of detection 290 nm, 3 μL injection volume, 10 minute run time, and column temperature of 30° C. Prepare a stock solution of 5-(5-(2-(3-aminopropoxy)-6-methoxyphenyl)-1H-pyrazol-3-ylamino)pyrazine-2-carbonitrile in 50/50 water/acetonitrile and dilute with 50/50 water/acetonitrile to give concentrations suitable for quantification of the solubility samples. Dilute the samples with 50/50 acetonitrile/water. Use a dilution factor of 200 for the samples. […]

Series [3] can be described thus: Pharmacokinetic comparison after 1-hour IV infusion, plasma concentrations by LC-MS/MS. It counts as in vivo, male Sprague-Dawley rats. As to conditions: rat; for concentration at 0.25 h / concentration at 0.5 h / concentration at 1 h / concentration at 1.25 h / concentration at 1.5 h / concentration at 2 h / concentration at 4 h / concentration at 8 h / concentration at 24 h: male, Sprague-Dawley, single 10 mg/kg 1-hour intravenous infusion; for concentration at 0.25 h: 0.25 hours after start of infusion; for concentration at 0.5 h: 0.5 hours after start of infusion; for concentration at 1 h: 1 hour after start of infusion; for concentration at 1.25 h: 1.25 hours after start of infusion; for concentration at 1.5 h: 1.5 hours after start of infusion; for concentration at 2 h: 2 hours after start of infusion; for concentration at 4 h: 4 hours after start of infusion; for concentration at 8 h: 8 hours after start of infusion; for concentration at 24 h: 24 hours after start of infusion; for Difference in blood plasma levels between the two salt forms (2 sample t-test, pooled error): 10 mg/kg IV infusion for 1 hour, mesylate formulated in Captisol, (S)-lactate in trehalose. On the procedure: Evaluate the noncompartmental pharmacokinetic parameters of the methanesulfonic acid monohydrate and (S)-lactate monohydrate salts of 5-(5-(2-(3-aminopropoxy)-6-methoxyphenyl)-1H-pyrazol-3-ylamino)pyrazine-2-carbonitrile after intravenous (IV) infusion of 10 mg/kg of the methanesulfonic acid monohydrate salt (10 mg/kg, formulated in Captisol®) or of the (S)-lactate monohydrate salt (formulated in trehalose) into the femoral vein cannula of fed male Sprague-Dawley rats for 1 hour. Collect blood samples over 24 hours from 6 animals/group. Collect blood samples into tubes containing K3EDTA at 0.25, 0.5, 1, 1.25, 1.5, 2, 4, 8, and 24 hours after the start of infusion. Centrifuge the samples to obtain plasma, and freeze until analyzed. Determine plasma concentrations using a validated LC-MS/MS assay.
Dispense WFI equivalent to approximately 80% of the final batch volume. Warm the WFI to 40° C.±3° C. and transfer to the manufacturing vessel. Weigh the required amount of active pharmaceutical ingredient and after ensuring that the WFI temperature is still within the specified range, quantitatively transfer the active pharmaceutical ingredient into the manufacturing vessel while stirring. Stir until the active pharmaceutical ingredient has dissolved yielding a clear yellow solution, stirring for no longer than 30 minutes. Add trehalose and polysorbate 80 to the manufacturing vessel. Stir until dissolved. Measure the pH of the solution and adjust to pH 4.4±0.3 with lactic acid (Note: If using lactic acid 88%-92% solution, titrate slowly and cautiously as small quantities can produce large changes in pH, or prepare a 10% solution of lactic acid for pH adjustment). If necessary, and only if the pH drops below the lower limit during adjustment, add 10% NaOH solution to bring the pH back into range. Add WFI to the manufacturing vessel to bring the solution to the final batch weight which is calculated based on the desired batch volume and the density of the solution. Measure the pH of the solution and adjust, if necessary, to pH 4.4±0.3 with lactic acid or 10% NaOH. The solution is filtered through a sterile 0.22 micron PVDF membrane (Millipore Durapore®) into a sterile receiving vessel. Fill the drug product into sterile vials. Upon completion of filling, stopper and seal vials. If not dosed within about 4 hours, store all vials at −20° C.
Dispense WFI equivalent to approximately 80% of the final batch volume into the manufacturing vessel. Weigh the required amount of Captisol® and transfer to the manufacturing vessel. Stir until dissolved. Weigh the required amount of active pharmaceutical ingredient and form a slurry by adding WFI to the active pharmaceutical ingredient with swirling until wetted. Transfer the slurry to the stirring Captisol® solution. Rinse the active pharmaceutical ingredient with WFI (3×) and add the rinses to the stirring bulk solution. Stir until the active pharmaceutical ingredient has been dispersed. Stir for no longer than 60 minutes. Some particles may be visible in the manufacturing vessel after stirring for 60 minutes. Maintain the pH of the solution between 4.0-6.0. If the pH drops below the lower limit, 10% NaOH solution may be added to bring the pH into range. Add WFI to the manufacturing vessel to bring the solution to the final batch weight which is calculated based on the desired batch volume and the density of the solution. Measure the pH of the solution and adjust, if necessary, to pH 4.0-6.0 with 10% NaOH. Filter the solution through a sterile 0.22 micron PVDF membrane (Millipore Durapore®) into a sterile receiving vessel. Fill the drug product into sterile vials. Upon completion of filling, stopper and seal the vials. If not dosed within about 4 hours, store all vials at −20° C.

[4] abbreviates: aqueous buffer, water solubility comparison, slurry in approx. 0.1 M aqueous acid.

With `COc1cccc(OCCCN)c1-c1cc(Nc2cnc(C#N)cn2)n[nH]1.C[C@H](O)C(=O)O` [(S)-Lactate Monohydrate, 5-(5-(2-(3-Aminopropoxy)-6-methoxyphenyl)-1H-pyrazol-3-ylamino)pyrazine-2-carbonitrile (S)-lactate Monohydrate], the Stability result in series [1] is listed as “Satisfactory”. Besides, in series [2] (aqueous (S)-lactic acid solution, pH 2.46, aqueous buffer, in water, measured at a pH of 2.46, 0.104 M (S)-lactic acid), the solubility at 1 week was greater than 20000 µg/mL. In series [2] (aqueous solution of the selected acid, aqueous buffer, water solubility comparison, slurry in approx. 0.1 M aqueous acid), the solubility at 1 week is greater than 20000 µg/mL. In series [3] (plasma), this compound displayed a concentration at 0.25 h of 1110 ng/mL, a concentration at 0.5 h of 1180 ng/mL, a concentration at 1 h of 1140 ng/mL and a concentration at 1.25 h of 405 ng/mL. In series [3] (plasma), this compound yielded a concentration at 1.5 h of 283 ng/mL, a concentration at 2 h of 217 ng/mL, a concentration at 4 h of 73.8 ng/mL and a concentration at 8 h of 28.6 ng/mL. In addition, the concentration at 24 h in series [3] (plasma) turned out to be 2.6 ng/mL. In addition, the “Difference in blood plasma levels between the two salt forms (2 sample t-test, pooled error)” value in series [3] is “no significant difference”.
Consider `COc1cccc(OCCCN)c1-c1cc(Nc2cnc(C#N)cn2)n[nH]1.Cl.Cl` [Di-HCl, 5-(5-(2-(3-aminopropoxy)-6-methoxyphenyl)-1H-pyrazol-3-ylamino)pyrazine-2-carbonitrile di-HCl salt], for which the Stability result in series [1] is “Unstable”. Further, the solubility at 1 week in series [2] (setting [4]) was determined as 107 µg/mL.
As to `COc1cccc(OCCCN)c1-c1cc(Nc2cnc(C#N)cn2)n[nH]1.CS(=O)(=O)O.O` [Methanesulfonic acid Monohydrate, 5-(5-(2-(3-aminopropoxy)-6-methoxyphenyl)-1H-pyrazol-3-ylamino)pyrazine-2-carbonitrile methanesulfonic acid monohydrate salt], in series [1], the Stability result was “Satisfactory”. Also, in series [2] (setting [4]), the solubility at 1 week worked out at 6630 µg/mL. Further, in series [3] (in vivo), the concentration at 0.25 h stood at 1060 ng/mL, the concentration at 0.5 h stood at 1100 ng/mL, the concentration at 1 h turned out to be 930 ng/mL and the concentration at 1.25 h came out at 319 ng/mL. In series [3] (in vivo), the concentration at 1.5 h was determined as 249 ng/mL, the concentration at 2 h was 178 ng/mL, the concentration at 4 h was 67.5 ng/mL and the concentration at 8 h was determined as 30.3 ng/mL. In addition, the concentration at 24 h in series [3] (in vivo) was found to be 3 ng/mL. Also, the “Difference in blood plasma levels between the two salt forms (2 sample t-test, pooled error)” value in series [3] is on record as “no significant difference”.
